Assay results published in patent publication US20110081315A1, “NOVEL MACROCYCLIC INHIBITORS OF HEPATITIS C VIRUS REPLICATION” (INTERMUNE, INC., priority 2009, published 2011).
Where two headings read alike, the source gives them in different places.

Tests used:
[1] = tested on: hepatitis C replicon; assay: hepatitis C replicon EC50 assay; assay type: cell-based; conditions: Hepatitis C virus
Outline: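 First, NS3 and NS4 are complexed; test compounds are then titrated against the complex at room temperature (23° C.) in Tris-HCl buffer, pH 7.5, supplemented with glycerol (15%), LDAO (0.6 mM), DTT (10 mM) and NS4A peptide (25 μM) to give IC50. Separately, replicon cells give EC50.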

[2] = molecular target: NS3/NS4 complexes (Hepatitis C virus genotype 1a, UniProt P27958); assay: NS3/NS4 inhibition assay (IC50); assay type: biochemical; conditions: NS3/NS4 activity; 23° C., 25 μM NS4A peptide
Outline: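 Enzyme IC50: NS3/NS4 complex, 23° C.; buffer Tris-HCl 50 mM pH 7.5 / glycerol 15% / DTT 10 mM / LDAO 0.6 mM / NS4A peptide 25 μM. Cellular: HCV replicon EC50.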

[3] = hepatitis C replicon, read-out: EC50

Chain of NS3/NS4 complexes (P27958 1027-1657, one chain of several): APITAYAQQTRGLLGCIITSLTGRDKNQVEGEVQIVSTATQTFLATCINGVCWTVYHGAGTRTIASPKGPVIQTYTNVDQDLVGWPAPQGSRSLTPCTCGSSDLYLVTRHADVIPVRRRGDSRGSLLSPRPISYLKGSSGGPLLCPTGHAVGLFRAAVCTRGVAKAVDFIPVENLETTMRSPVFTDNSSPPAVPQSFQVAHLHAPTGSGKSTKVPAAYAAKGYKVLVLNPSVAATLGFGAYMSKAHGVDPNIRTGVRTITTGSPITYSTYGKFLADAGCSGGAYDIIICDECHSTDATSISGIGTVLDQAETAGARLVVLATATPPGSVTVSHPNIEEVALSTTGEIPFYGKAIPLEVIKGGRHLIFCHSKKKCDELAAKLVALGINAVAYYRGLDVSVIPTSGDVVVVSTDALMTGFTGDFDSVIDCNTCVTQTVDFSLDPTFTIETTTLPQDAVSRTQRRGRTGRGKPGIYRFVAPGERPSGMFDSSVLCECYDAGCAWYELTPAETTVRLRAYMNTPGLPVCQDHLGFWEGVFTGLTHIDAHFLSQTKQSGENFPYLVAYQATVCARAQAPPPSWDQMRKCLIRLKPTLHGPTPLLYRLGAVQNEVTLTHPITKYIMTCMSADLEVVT

Compound | EC50 [1, 3] | IC50 [2] | EC50 [1]
CC(C)n1c(O[C@@H]2C[C@H]3C(=O)N[C@]4(C(=O)NS(=O)(=O)C5(C)CC5)C[C@H]4/C=C\CCCCC[C@H](NC(=O)OC4COC4)C(=O)N3C2)nc2c(-c3nc(C4CCCC4)cs3)cccc21 [Compound 1414] | < 10 nM | < 10 nM | 
CC(C)c1csc(-c2cccc3c2nc(O[C@@H]2C[C@H]4C(=O)N[C@]5(C(=O)NS(=O)(=O)C6(C)CC6)C[C@H]5/C=C\CCCCC[C@H](Nc5nccs5)C(=O)N4C2)n3C(C)C)n1 [Compound 1418] | < 10 nM | < 10 nM | 
CC(C)n1c(O[C@@H]2C[C@H]3C(=O)N[C@]4(C(=O)NS(=O)(=O)N(C)C)C[C@H]4/C=C\CCCCC[C@H](NC(=O)OC(C)(C)C)C(=O)N3C2)nc2c(N)cccc21 [Compound 1419] | < 10 nM | < 10 nM | 
CC(C)n1c(O[C@@H]2C[C@H]3C(=O)N[C@]4(C(=O)NS(=O)(=O)N(C)C)C[C@H]4/C=C\CCCCC[C@H](NC(=O)OC(C)(C)C)C(=O)N3C2)nc2c(NC(=O)Nc3ccccc3)cccc21 [Compound 1420] |  | < 10 nM | < 10 nM
CC(C)NC(=O)Nc1cccc2c1nc(O[C@@H]1C[C@H]3C(=O)N[C@]4(C(=O)NS(=O)(=O)N(C)C)C[C@H]4/C=C\CCCCC[C@H](NC(=O)OC(C)(C)C)C(=O)N3C1)n2C(C)C [Compound 1421] | < 10 nM | < 10 nM | 
CC(C)n1c(O[C@@H]2C[C@H]3C(=O)N[C@]4(C(=O)NS(=O)(=O)N(C)C)C[C@H]4/C=C\CCCCC[C@H](NC(=O)OC(C)(C)C)C(=O)N3C2)nc2c(NC(=O)NCc3ccccc3)cccc21 [Compound 1423] | < 10 nM | < 10 nM | 
CC(C)n1c(O[C@@H]2C[C@H]3C(=O)N[C@]4(C(=O)NS(=O)(=O)N(C)C)C[C@H]4/C=C\CCCCC[C@H](NC(=O)OC(C)(C)C)C(=O)N3C2)nc2c(NC(=O)NCCc3ccccc3)cccc21 [Compound 1424] |  | < 10 nM | < 10 nM
CC(C)n1c(O[C@@H]2C[C@H]3C(=O)N[C@]4(C(=O)NS(=O)(=O)N(C)C)C[C@H]4/C=C\CCCCC[C@H](NC(=O)OC(C)(C)C)C(=O)N3C2)nc2c(NC(N)=O)cccc21 [Compound 1425] | 10 to 100 nM | < 10 nM | 
CNC(=O)Nc1cccc2c1nc(O[C@@H]1C[C@H]3C(=O)N[C@]4(C(=O)NS(=O)(=O)N(C)C)C[C@H]4/C=C\CCCCC[C@H](NC(=O)OC(C)(C)C)C(=O)N3C1)n2C(C)C [Compound 1426] | 10 to 100 nM | < 10 nM | 
CCOC(=O)Nc1cccc2c1nc(O[C@@H]1C[C@H]3C(=O)N[C@]4(C(=O)NS(=O)(=O)N(C)C)C[C@H]4/C=C\CCCCC[C@H](NC(=O)OC(C)(C)C)C(=O)N3C1)n2C(C)C [Compound 1427] | < 10 nM | < 10 nM | 
CC(C)n1c(O[C@@H]2C[C@H]3C(=O)N[C@]4(C(=O)NS(=O)(=O)N(C)C)C[C@H]4/C=C\CCCCC[C@H](NC(=O)OC(C)(C)C)C(=O)N3C2)nc2c(NC(=O)OCc3ccccc3)cccc21 [Compound 1428] | < 10 nM | < 10 nM | 
CC(C)n1c(O[C@@H]2C[C@H]3C(=O)N[C@]4(C(=O)NS(=O)(=O)N(C)C)C[C@H]4/C=C\CCCCC[C@H](NC(=O)OC(C)(C)C)C(=O)N3C2)nc2c(NC(=O)OCCc3ccccc3)cccc21 [Compound 1429] | < 10 nM | < 10 nM | 
CCn1c(O[C@@H]2C[C@H]3C(=O)N[C@]4(C(=O)NS(=O)(=O)N(C)C)C[C@H]4/C=C\CCCCC[C@H](NC(=O)OC(C)(C)C)C(=O)N3C2)nc2c(-c3nc(C(C)C)cs3)cccc21 [Compound 1430] | 10 to 100 nM | < 10 nM | 
CCn1c(O[C@@H]2C[C@H]3C(=O)N[C@]4(C(=O)NS(=O)(=O)N(C)C)C[C@H]4/C=C\CCCCC[C@H](NC(=O)OC(C)(C)C)C(=O)N3C2)nc2c(-c3nc(-c4ccccc4)cs3)cccc21 [Compound 1431] | 10 to 100 nM | < 10 nM | 
CCn1c(O[C@@H]2C[C@H]3C(=O)N[C@]4(C(=O)NS(=O)(=O)N(C)C)C[C@H]4/C=C\CCCCC[C@H](NC(=O)OC(C)(C)C)C(=O)N3C2)nc2c(-c3nc(C(C)C)c(C)s3)cccc21 [Compound 1432] | 10 to 100 nM | < 10 nM | 
CC(C)c1csc(-c2cccc3c2nc(O[C@@H]2C[C@H]4C(=O)N[C@]5(C(=O)NS(=O)(=O)N(C)C)C[C@H]5/C=C\CCCCC[C@H](NC(=O)OC(C)(C)C)C(=O)N4C2)n3C(C)C)n1 [Compound 1433] | < 10 nM | < 10 nM | 
CC(C)n1c(O[C@@H]2C[C@H]3C(=O)N[C@]4(C(=O)NS(=O)(=O)C5CC5)C[C@H]4/C=C\CCCCC[C@H](NC(=O)OC(C)(C)C)C(=O)N3C2)nc2c(-c3nc(C4CCCC4)cs3)cccc21 [Compound 1434] | < 10 nM | < 10 nM | 

Compound | EC50 [1, 3] | IC50 [2] | EC50 [1]
CC(C)c1coc(-c2cccc3c2nc(O[C@@H]2C[C@H]4C(=O)N[C@]5(C(=O)NS(=O)(=O)N(C)C)C[C@H]5/C=C\CCCCC[C@H](NC(=O)OC(C)(C)C)C(=O)N4C2)n3C(C)C)n1 [Compound 1435] | < 10 nM | < 10 nM | 
Cc1cc(-c2nc(C(C)C)cs2)c2nc(O[C@@H]3C[C@H]4C(=O)N[C@]5(C(=O)NS(=O)(=O)N(C)C)C[C@H]5/C=C\CCCCC[C@H](NC(=O)OC(C)(C)C)C(=O)N4C3)n(C(C)C)c2c1 [Compound 1436] | 10 to 100 nM | < 10 nM | 
CC1(S(=O)(=O)NC(=O)[C@@]23C[C@H]2/C=C\CCCCC[C@H](Nc2ccccc2)C(=O)N2C[C@H](n4nc5ccccc5n4)C[C@H]2C(=O)N3)CC1 [Compound 1501] | > 100 nM | 10 to 100 nM | 
CC1(S(=O)(=O)NC(=O)[C@@]23C[C@H]2/C=C\CCCCC[C@H](Nc2ccccc2)C(=O)N2C[C@H](n4nnc5ccccc54)C[C@H]2C(=O)N3)CC1 [Compound 1502] | > 100 nM | < 10 nM | 
CC1(S(=O)(=O)NC(=O)[C@@]23C[C@H]2/C=C\CCCCC[C@H](Nc2ccccc2)C(=O)N2C[C@H](n4ncc(-c5ccccc5)n4)C[C@H]2C(=O)N3)CC1 [Compound 1503] | > 100 nM | < 10 nM | 
CC1(S(=O)(=O)NC(=O)[C@@]23C[C@H]2/C=C\CCCCC[C@H](Nc2ccccc2)C(=O)N2C[C@H](n4cc(-c5ccccc5)nn4)C[C@H]2C(=O)N3)CC1 [Compound 1504] | > 100 nM | 10 to 100 nM | 
CC1(S(=O)(=O)NC(=O)[C@@]23C[C@H]2/C=C\CCCCC[C@H](Nc2ccccc2)C(=O)N2C[C@H](n4nc(Br)c(-c5ccccc5)n4)C[C@H]2C(=O)N3)CC1 [Compound 1505] | > 100 nM | < 10 nM | 
COc1ccc(-c2nn([C@@H]3C[C@H]4C(=O)N[C@]5(C(=O)NS(=O)(=O)C6(C)CC6)C[C@H]5/C=C\CCCCC[C@H](Nc5ccccc5)C(=O)N4C3)nc2-c2nccs2)cc1 [Compound 1506] | 10 to 100 nM | < 10 nM | 
COc1ccc2c(O[C@@H]3C[C@H]4C(=O)N[C@]5(C(=O)NS(=O)(=O)C6CC6)C[C@H]5/C=C\CCCCN(c5ccccc5)C(=O)[C@@H]4C3)cc(-c3nc(C(C)C)cs3)nc2c1C [Compound 1601] | > 100 nM | < 10 nM | 
CC(C)n1c(O[C@@H]2C[C@H]3C(=O)N[C@]4(C(=O)NS(=O)(=O)C5(C)CC5)C[C@H]4/C=C\CCCCC[C@H](NC(=O)OC(C)(C)C)C(=O)N3C2)nc2c(-c3csc(-c4ccccc4)n3)cccc21 [Compound 1701] | 10 to 100 nM | < 10 nM | 
CC(C)n1c(O[C@@H]2C[C@H]3C(=O)N[C@]4(C(=O)NS(=O)(=O)C5(C)CC5)C[C@H]4/C=C\CCCCC[C@H](NC(=O)OC(C)(C)C)C(=O)N3C2)nc2c(-c3csc(C4CC4)n3)cccc21 [Compound 1702] | < 10 nM | < 10 nM | 
CC(C)n1c(O[C@@H]2C[C@H]3C(=O)N[C@]4(C(=O)NS(=O)(=O)C5(C)CC5)C[C@H]4/C=C\CCCCC[C@H](NC(=O)OC(C)(C)C)C(=O)N3C2)nc2c(-c3csc(-c4cc(F)cc(F)c4)n3)cccc21 [Compound 1703] | 10 to 100 nM | < 10 nM | 
CC(C)n1c(O[C@@H]2C[C@H]3C(=O)N[C@]4(C(=O)NS(=O)(=O)C5(C)CC5)C[C@H]4/C=C\CCCCC[C@H](NC(=O)OC(C)(C)C)C(=O)N3C2)nc2c(-c3csc(N4CCOCC4)n3)cccc21 [Compound 1704] | < 10 nM | < 10 nM | 
CC(C)n1c(O[C@@H]2C[C@H]3C(=O)N[C@]4(C(=O)NS(=O)(=O)C5(C)CC5)C[C@H]4/C=C\CCCCC[C@H](NC(=O)OC(C)(C)C)C(=O)N3C2)nc2c(-c3cnc(N4CCCC4)cn3)cccc21 [Compound 1705] | < 10 nM | < 10 nM | 
CC(C)n1c(O[C@@H]2C[C@H]3C(=O)N[C@]4(C(=O)NS(=O)(=O)C5(C)CC5)C[C@H]4/C=C\CCCCC[C@H](NC(=O)OC(C)(C)C)C(=O)N3C2)nc2c(-c3csc(N4CCCCC4)n3)cccc21 [Compound 1706] | < 10 nM | < 10 nM | 
CC(C)n1c(O[C@@H]2C[C@H]3C(=O)N[C@]4(C(=O)NS(=O)(=O)C5(C)CC5)C[C@H]4/C=C\CCCCC[C@H](NC(=O)OC(C)(C)C)C(=O)N3C2)nc2c(-c3cncnc3)cccc21 [Compound 1707] | < 10 nM | < 10 nM | 
